Biological target: T1, phosphodiesterase 4B1 (PDE 4B1) (Homo sapiens, UniProt Q07343)
T1 construct: gene PDE4B; PDE 4B1 (BPS Biosciences)
Assay: PDELight bioluminescent cAMP phosphodiesterase assay, % inhibition at […]
Assay type: biochemical
Conditions: read-out: PDE 4B1 inhibition (%) ± SEM

T1 sequence (Q07343 whole entry): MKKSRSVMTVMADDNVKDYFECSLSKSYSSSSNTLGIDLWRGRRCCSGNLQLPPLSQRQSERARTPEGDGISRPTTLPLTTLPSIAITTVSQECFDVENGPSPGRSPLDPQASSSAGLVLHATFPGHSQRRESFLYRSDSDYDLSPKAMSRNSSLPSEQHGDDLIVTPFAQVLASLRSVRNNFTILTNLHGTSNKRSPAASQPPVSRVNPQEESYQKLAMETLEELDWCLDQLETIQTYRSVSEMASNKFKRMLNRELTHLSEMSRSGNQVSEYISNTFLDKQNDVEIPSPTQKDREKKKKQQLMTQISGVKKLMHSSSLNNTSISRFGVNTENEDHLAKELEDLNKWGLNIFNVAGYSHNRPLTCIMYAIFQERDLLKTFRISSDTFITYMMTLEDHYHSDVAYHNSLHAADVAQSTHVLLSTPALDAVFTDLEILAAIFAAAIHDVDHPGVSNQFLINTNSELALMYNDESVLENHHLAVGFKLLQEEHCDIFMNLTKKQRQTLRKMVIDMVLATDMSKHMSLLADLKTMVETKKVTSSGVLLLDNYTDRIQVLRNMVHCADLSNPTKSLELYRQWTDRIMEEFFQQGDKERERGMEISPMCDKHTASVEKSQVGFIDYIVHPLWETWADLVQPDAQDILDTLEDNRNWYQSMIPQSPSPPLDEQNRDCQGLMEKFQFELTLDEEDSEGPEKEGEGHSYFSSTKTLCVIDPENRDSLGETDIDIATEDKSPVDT

| SMILES | inhibition at 50 µM [%] | inhibition at 100 µM [%] |
| --- | --- | --- |
| COc1ccc(C2CNC(=O)C2)cc1OC1CCCC1 (centres unmarked) [Rolipram] | 95 | – |
| Nc1nc(N)nc(-c2cc(Cl)ccc2Cl)n1 [Irsogladine] | – | 31 ± 0.5 |
